Test results reported in patent US6479531B1, “Gastrin and cholecystokinin receptor ligands” (James Black Foundation Limited, priority 1998, dated 2002).

Columns and labels:
CCKB receptor = molecular target: T1, CCKB receptor (Mus musculus, UniProt P56481); assay: CCKB receptor radioligand binding assay in mouse cortical membranes; details: [125I]-CCK8(S) 200 pM, 150 min at 21±3°, read-out: CCKB pKi (converted)
T1 construct: The whole brains from male mice (CD1 22-25 g; Charles River) were removed; from tissue; host or cells: cerebral cortex membranes of male CD1 mice
T1 sequence (P56481 1-453): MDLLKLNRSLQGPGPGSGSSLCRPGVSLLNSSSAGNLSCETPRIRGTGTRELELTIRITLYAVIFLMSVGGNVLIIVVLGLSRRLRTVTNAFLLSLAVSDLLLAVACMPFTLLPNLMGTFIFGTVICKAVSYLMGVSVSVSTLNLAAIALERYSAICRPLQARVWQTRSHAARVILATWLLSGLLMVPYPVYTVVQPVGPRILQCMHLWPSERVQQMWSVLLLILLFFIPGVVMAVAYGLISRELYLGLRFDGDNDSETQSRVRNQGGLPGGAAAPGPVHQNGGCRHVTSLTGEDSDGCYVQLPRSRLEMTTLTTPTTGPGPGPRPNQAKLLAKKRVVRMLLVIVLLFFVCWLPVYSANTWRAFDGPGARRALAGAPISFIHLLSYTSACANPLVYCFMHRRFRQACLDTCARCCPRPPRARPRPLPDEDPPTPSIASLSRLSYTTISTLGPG
Summary of the method: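 Bound radioactivity was gamma-counted after rapid GF/B filtration and cold 50 mM Tris-HCl (pH 7.4) washes. The tissue was cerebral cortex from male CD1 mice, prepared as twice-centrifuged membranes in pH 7.2 HEPES/NaCl/KCl/MgCl2/EDTA buffer with bacitracin at 20 mg/ml original wet weight.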

gastrin receptor = molecular target: T2, gastrin receptor (Rattus norvegicus, UniProt P30553); assay: gastrin antagonist activity in immature rat stomach assay (pentagastrin dose-response, acid secretion); details: isolated immature rat stomach, cumulative pentagastrin dose-response curves, read-out: Gastrin pKb (converted)
T2 construct: The stomach was excised and flushed with ca. 1 ml of unbuffered physiological saline solution; from tissue; host or cells: isolated whole stomach of immature rats (ca. 21 days old)
T2 sequence (P30553 1-452): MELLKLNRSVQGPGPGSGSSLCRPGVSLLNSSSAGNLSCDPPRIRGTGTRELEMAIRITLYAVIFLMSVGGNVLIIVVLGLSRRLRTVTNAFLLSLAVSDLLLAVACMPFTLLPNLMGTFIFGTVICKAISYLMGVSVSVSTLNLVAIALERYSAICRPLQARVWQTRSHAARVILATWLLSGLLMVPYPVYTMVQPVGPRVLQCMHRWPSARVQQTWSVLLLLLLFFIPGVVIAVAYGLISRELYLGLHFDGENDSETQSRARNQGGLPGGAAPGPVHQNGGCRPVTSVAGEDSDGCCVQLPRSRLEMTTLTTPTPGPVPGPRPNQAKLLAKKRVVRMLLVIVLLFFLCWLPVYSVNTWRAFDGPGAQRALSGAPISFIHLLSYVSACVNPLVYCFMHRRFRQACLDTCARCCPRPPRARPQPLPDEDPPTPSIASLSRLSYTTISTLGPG
Summary of the method: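 Isolated, lumen-perfused stomach from immature rats (33-50 g, ca. 21 days) in a 37° organ bath with 3×10^−8 M 5-methylfurmethide, gassed 95% O2/5% CO2. Compound added serosally after 120 min stabilisation; cumulative pentagastrin dose-response curves begun 60 min later, acid secretion followed by perfusate pH.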

CCKA receptor = molecular target: T3, CCKA receptor (Cavia porcellus, UniProt Q63931); assay: CCKA binding assay in guinea-pig pancreas membranes; details: [125I]-CCK8(S) 200 pM, with 0.375 μM PD134,308, read-out: CCKA pKi (converted)
T3 construct: The pancreatata were removed from male guineau-pigs (200-300 g; Dunkin Hartley); from tissue; host or cells: pancreas membranes of male Dunkin Hartley guinea-pigs
T3 sequence (Q63931 1-430): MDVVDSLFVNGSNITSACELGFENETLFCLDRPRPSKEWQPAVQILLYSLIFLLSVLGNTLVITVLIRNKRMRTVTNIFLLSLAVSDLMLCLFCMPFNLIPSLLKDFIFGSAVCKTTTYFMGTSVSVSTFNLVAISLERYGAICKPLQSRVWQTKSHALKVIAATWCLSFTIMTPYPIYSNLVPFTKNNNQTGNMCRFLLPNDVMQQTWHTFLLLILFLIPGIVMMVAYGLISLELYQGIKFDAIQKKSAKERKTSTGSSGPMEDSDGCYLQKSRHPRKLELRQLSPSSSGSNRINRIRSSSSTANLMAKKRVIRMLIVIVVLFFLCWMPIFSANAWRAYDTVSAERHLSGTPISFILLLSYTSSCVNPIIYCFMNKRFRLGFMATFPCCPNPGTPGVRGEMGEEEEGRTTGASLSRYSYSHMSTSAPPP
Experimental: The compounds of certain examples were also tested in a CCKA binding assay as follows:
The pancreatata were removed from male guineau-pigs (200-300 g; Dunkin Hartley) and placed in ice-cold HEPES buffer (pH 7.2 @ 21±3° C.). The pancreatata were homogenised in 40 ml ice-cold HEPES buffer using a polytron (Brinkmann, PT10, setting 10) 4×1 second. The homogenate was centrifuged at 39,800 g for 15 min at 4° C. The supernatant was discarded and the pellet re-suspended using a Teflon-in-glass homogeniser in 20 volumes of fresh buffer and re-centrifuged as above. The final pellet was re-suspended using a Teflon-in-glass homogeniser to a tissue concentration of 1 mg.ml^−1 (original weight), and filtered through a 500 μm pore-size Nytex mesh.
The membranes (400 μl; containing 0.375 μM PD134,308) were incubated for 150 minutes at 21±3° C. in a final volume of 0.5 ml with HEPES buffer containing [^125I]-CCK8 (S) (50 μl; 200 pM) and competing compound. Total and non-specific binding of [^125I]-CCK8 (S) were defined using 50 μl of buffer and 50 μ of 100 nM L-364,718 respectively. The assay was terminated by rapid filtration through pre-soaked Whatman GF/B filters using a Brandell Cell Harvetser. The filters were washed (3×3 ml) with ice-cold 50 mM Tris HCl (pH 7.4 @ 4° C.) and bound radioactivity was determined by counting (1 min) in a gamma counter.

Ki (CCKB receptor) [µM] | Kb (gastrin receptor) [µM] | Ki (CCKA receptor) [µM] | SMILES
0.00229 | 0.00257 | 0.1 | Cc1ccc(NC(=O)c2nc(C3CC4C=CC3C4)[nH]c2CCC23CC4CC(CC(C4)C2)C3)cc1C(=O)O (racemic) [Example 211, (±)-endo-5-{[5-(2-Adamantan-1-yl-ethyl)-2-bicyclo[2.2.1]hept-5-en-2-yl-1H-imidazole-4-carbonyl]-amino}-2-methyl-benzoic Acid]
0.0251 | 0.0049 | 0.631 | O=C(O)c1cccc(NC(=O)c2[nH]c(C3CCCCC3)nc2CCC23CC4CC(CC(C4)C2)C3)c1 [Example 76, 3-{[5-(2-Adamantan-1-yl-ethyl)-2-cyclohexyl-1H-imidazole-4-carbonyl]-amino}-benzoic Acid]
0.00288 | 0.00324 | 0.126 | Cc1cc(C)c(-c2nc(C(=O)Nc3ccc(C)c(C(=O)O)c3)c(CCC34CC5CC(CC(C5)C3)C4)[nH]2)c(C)c1 [Example 155, 5-{[5-(2-Adamantan-1-yl-ethyl)-2-(2,4,6-trimethyl-phenyl)-1H-imidazole-4-carbonyl]-amino}-2-methyl-benzoic Acid]
0.0038 | 0.000891 | 0.251 | Cc1ccc(NC(=O)c2[nH]c(C3(C)CCCCC3)nc2CCC23CC4CC(CC(C4)C2)C3)cc1C(=O)O [Example 200, 5-{[5-(2-Adamantan-1-yl-ethyl)-2-(1-methyl-cyclohexyl)-1H-imidazole-4-carbonyl}-amino)-2-methyl-benzoic Acid]
0.0126 | 0.000871 | 0.501 | O=C(O)c1cccc(NC(=O)c2nc(C3CCCCC3)[nH]c2COC23CC4CC(CC(C4)C2)C3)c1 [Example 216, 3-{[5-(Adamantan-1-yloxymethyl)-2-cyclohexyl-1H-imidazole-4-carbonyl]-amino}-benzoic Acid]
– | 0.0692 | 0.501 | O=C(O)Cc1cccc(NC(=O)c2nc(C3CCCCC3)[nH]c2COC23CC4CC(CC(C4)C2)C3)c1 [Example 219, (3-{[5-(Adamantan-1-yloxymethyl)-2-cyclohexyl-1H-imidazole-4-carbonyl]-amino}-phenyl)-acetic Acid]
– | 0.000708 | 0.794 | O=C(O)c1cccc(NC(=O)c2nc(C34CCC(CC3)CC4)[nH]c2COC23CC4CC(CC(C4)C2)C3)c1 [Example 221, 3-{[5-(Adamantan-1-yloxymethyl)-2-bicyclo[2.2.2]oct-1-yl-1H-imidazole-4-carbonyl]-amino}-benzoic Acid]
– | 0.0182 | 0.631 | O=C(O)Cc1cccc(NC(=O)c2nc(C34CCC(CC3)CC4)[nH]c2COC23CC4CC(CC(C4)C2)C3)c1 [Example 224, (3-{[5-(Adamantan-1-yloxymethyl)-2-bicyclo[2.2.2]oct-1-yl-1H-imidazole-4-carbonyl]-amino}-phenyl)-acetic Acid]
– | 0.00302 | 2.51 | O=C(O)c1cccc(NC(=O)c2nc([C@H]3CC4C=C[C@@H]3C4)[nH]c2COC23CC4CC(CC(C4)C2)C3)c1 [Example 235, endo-3-{[5-(Adamantan-1-yloxymethyl)-2-((1S,2S)-bicyclo[2.2.1]hept-5-en-2-yl)-1H-imidazole-4-carbonyl]-amino}-benzoic Acid]
– | 0.00105 | 0.794 | O=C(O)c1cccc(NC(=O)c2nc([C@@H]3CC4C=C[C@H]3C4)[nH]c2COC23CC4CC(CC(C4)C2)C3)c1 [Example 236]
0.0126 | 0.0117 | – | O=C(O)c1cc(NC(=O)c2nc(C3CCCCC3)[nH]c2CCC23CC4CC(CC(C4)C2)C3)ccc1F [Example 254, 5-{[5-(2-Adamantan-1-yl-ethyl)-2-cyclohexyl-1H-imidazole-4-carbonyl]-amino}-2-fluoro-benzoic Acid]
